# Experiments:
# Assay type in all cases: in vivo
# Kochia (Kochia scoparia) [1] = assay: Test A preemergence
# Method in brief: (§1)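 Seeds sprayed preemergence with a directed soil spray, or plants at 2 to 10 cm height and one- to two-leaf stage sprayed postemergence, with test chemicals in a non-phytotoxic solvent mixture containing surfactant, in loam soil–sand blend. Injury rated visually against untreated controls after about 10 d in greenhouse, 0 (no effect) to 100 (complete control).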
# [2] = test system: barnyardgrass (Echinochloa crus-galli); assay: Test A preemergence
# Method in brief: as §1
# [3] = test system: giant foxtail (Setaria faberii); assay: Test A preemergence
# Method in brief: as §1
# [4] = test system: pigweed (Amaranthus retroflexus); assay: Test A preemergence
# [5] = test system: ragweed (common ragweed, Ambrosia elatior); assay: Test A preemergence
# Method in brief: as §1
# [6] = test system: ryegrass, Italian (Italian ryegrass, Lolium multiflorum); assay: Test A preemergence
# Method in brief: as §1
# [7] = test system: Galium (catchweed bedstraw, Galium aparine); assay: Test A postemergence
# Method in brief: as §1
# Kochia (Kochia scoparia) [8] = assay: Test A postemergence
# Method in brief: as §1
# [9] = test system: barnyardgrass (Echinochloa crus-galli); assay: Test A postemergence
# Method in brief: as §1
# [10] = test system: blackgrass (Alopecurus myosuroides); assay: Test A postemergence
# Method in brief: as §1
# corn (Zea mays) = assay: Test A postemergence
# Method in brief: as §1
# [11] = test system: giant foxtail (Setaria faberii); assay: Test A postemergence
# Method in brief: as §1
# [12] = test system: pigweed (Amaranthus retroflexus); assay: Test A postemergence
# Method in brief: as §1
# [13] = test system: ragweed (common ragweed, Ambrosia elatior); assay: Test A postemergence
# Method in brief: as §1
# [14] = test system: ryegrass, Italian (Italian ryegrass, Lolium multiflorum); assay: Test A postemergence
# Method in brief: as §1
# [15] = test system: wheat (Triticum aestivum); assay: Test A postemergence
# Method in brief: as §1
# [16] = test system: barnyardgrass (Echinochloa crus-galli); assay: Test B flooded paddy test; conditions: Flood, 250 g ai/ha
# Method in brief: (§2)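 2-leaf plants; pots flooded 3 cm over soil; cpd added to paddy water; depth held; greenhouse 13–15 d; visual rating vs controls, 0 = no effect, 100 = complete control.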
# [17] = test system: ducksalad (Heteranthera limosa); assay: Test B flooded paddy test; conditions: Flood, 250 g ai/ha
# Method in brief: as §2
# rice (Oryra sativa) = assay: Test B flooded paddy test; conditions: Flood, 250 g ai/ha
# Method in brief: as §2
# [18] = test system: sedge, umbrella (small-flower umbrella sedge, Cyperus difformis); assay: Test B flooded paddy test; conditions: Flood, 250 g ai/ha
# Method in brief: as §2
# [19] = test system: barnyardgrass (Echinochloa crus-galli); assay: Test C flooded paddy test; conditions: Flood; for Plant response rating (scale of 0 to 100), Barnyardgrass: 0 is no effect, 100 is complete control
# Description: (§3) Plant species in the flooded paddy test consisted of rice (Oryza sativa), sedge, umbrella (small-flower umbrella sedge, Cyperus difformis), ducksalad (Heteranthera limosa), and barnyardgrass (Echinochloa crus-galli) grown to the 2-leaf stage for testing. At time of treatment, test pots were flooded to 3 cm above the soil surface, treated by application of test compounds directly to the paddy water, and then maintained at that water depth for the duration of the test. Treated plants and controls were maintained in a greenhouse for 13 to 15 d, after which time all species were compared to controls and visually evaluated. Plant response ratings, summarized in Table C, are based on a scale of 0 to 100 where 0 is no effect and 100 is complete control. A dash (-) response means no test result.
# [20] = test system: ducksalad (Heteranthera limosa); assay: Test C flooded paddy test; conditions: Flood; for Plant response rating (scale of 0 to 100), Ducksalad: 0 is no effect, 100 is complete control
# Description: as §3
# rice (Oryza sativa) = assay: Test C flooded paddy test; conditions: Flood; for Plant response rating (scale of 0 to 100), Rice: 0 is no effect, 100 is complete control
# Description: as §3
# [21] = test system: sedge, umbrella (small-flower umbrella sedge, Cyperus difformis); assay: Test C flooded paddy test; conditions: Flood; for Plant response rating (scale of 0 to 100), Sedge, Umbrella: 0 is no effect, 100 is complete control
# Description: as §3
# [22] = 125 g ai/ha, Preemergence, visual injury after approximately 10 d, 0 to 100 scale where 0 is no effect and 100 is complete control
# [23] = 500 g ai/ha, preemergence, 0 to 100 scale, 0 = no effect, 100 = complete control
# [24] = 125 g ai/ha, postemergence, visual rating after approx. 10 d, 0 to 100 scale (0 no effect, 100 complete control)
# [25] = 500 g ai/ha, postemergence, visual injury, 0 to 100 scale (0 no effect, 100 complete control), approx. 10 d
# [26] = 0 to 100 scale where 0 is no effect and 100 is complete control, 13 to 15 d
# [27] = 31 g ai/ha, scale 0 to 100 (0 no effect, 100 complete control), 13 to 15 d
# [28] = 500 g ai/ha, preemergence, 0 to 100 scale (0 no effect, 100 complete control)
# [29] = Preemergence, 125 g ai/ha, 0 to 100 scale (0 no effect, 100 complete control)
# [30] = Postemergence, 125 g ai/ha, visual injury after approx. 10 d, 0 to 100 scale, 0 no effect, 100 complete control
# [31] = Postemergence, 500 g ai/ha, visual injury, 0 to 100 scale (0 no effect, 100 complete control), approx. 10 d
# [32] = visually evaluated after 13 to 15 d
smiles,measurement,setting,value
CC(C)Oc1cccc(C2CN(C)C(=O)C2C(=O)Nc2ccccc2F)c1 (stereo not shown) [Compound 650],"Plant response rating, Kochia",Kochia (Kochia scoparia) [1]; [22],30
same,"Plant response rating, Kochia",Kochia (Kochia scoparia) [1]; [23],70
same,"Plant response rating, Barnyardgrass",[2]; [22],100
same,"Plant response rating, Barnyardgrass",[2]; [23],100
same,"Plant response rating, Foxtail, Giant",[3]; [22],100
same,"Plant response rating, Foxtail, Giant",[3]; [23],100
same,"Plant response rating, Pigweed",[4]; [22],50
same,"Plant response rating, Pigweed",[4]; [23],90
same,"Plant response rating, Ragweed",[5]; [22],0
same,"Plant response rating, Ragweed",[5]; [23],80
same,"Plant response rating, Ryegrass, Italian",[6]; [22],40
same,"Plant response rating, Ryegrass, Italian",[6]; [23],90
same,"Plant response rating, Galium",[7]; [24],50
same,"Plant response rating, Galium",[7]; [25],70
same,"Plant response rating, Kochia",Kochia (Kochia scoparia) [8]; [24],0
same,"Plant response rating, Kochia",Kochia (Kochia scoparia) [8]; [25],40
same,"Plant response rating, Barnyardgrass",[9]; [24],90
same,"Plant response rating, Barnyardgrass",[9]; [25],90
same,"Plant response rating, Blackgrass",[10]; [24],50
same,"Plant response rating, Blackgrass",[10]; [25],50
same,"Plant response rating, Corn",corn (Zea mays); [24],40
same,"Plant response rating, Corn",corn (Zea mays); [25],90
same,"Plant response rating, Foxtail, Giant",[11]; [24],90
same,"Plant response rating, Foxtail, Giant",[11]; [25],90
same,"Plant response rating, Pigweed",[12]; [24],0
same,"Plant response rating, Pigweed",[12]; [25],0
same,"Plant response rating, Ragweed",[13]; [24],0
same,"Plant response rating, Ragweed",[13]; [25],30
same,"Plant response rating, Ryegrass, Italian",[14]; [24],60
same,"Plant response rating, Ryegrass, Italian",[14]; [25],70
same,"Plant response rating, Wheat",[15]; [24],30
same,"Plant response rating, Wheat",[15]; [25],70
same,"Plant response rating, Barnyardgrass",[16]; [26],80
same,"Plant response rating, Ducksalad",[17]; [26],100
same,"Plant response rating, Rice",rice (Oryra sativa); [26],0
same,"Plant response rating, Sedge, Umbrella",[18]; [26],0
same,"Plant response rating, Barnyardgrass",[19]; [27],20
same,"Plant response rating (scale of 0 to 100), Barnyardgrass",[19]; 62 g ai/ha,20
same,"Plant response rating (scale of 0 to 100), Barnyardgrass",[19]; 125 g ai/ha,60
same,"Plant response rating (scale of 0 to 100), Barnyardgrass",[19]; 250 g ai/ha,75
same,"Plant response rating, Ducksalad",[20]; [27],60
same,"Plant response rating (scale of 0 to 100), Ducksalad",[20]; 62 g ai/ha,70
same,"Plant response rating (scale of 0 to 100), Ducksalad",[20]; 125 g ai/ha,90
same,"Plant response rating (scale of 0 to 100), Ducksalad",[20]; 250 g ai/ha,95
same,"Plant response rating, Rice",rice (Oryza sativa); [27],0
same,"Plant response rating (scale of 0 to 100), Rice",rice (Oryza sativa); 62 g ai/ha,0
same,"Plant response rating (scale of 0 to 100), Rice",rice (Oryza sativa); 125 g ai/ha,0
same,"Plant response rating (scale of 0 to 100), Rice",rice (Oryza sativa); 250 g ai/ha,0
same,"Plant response rating, Sedge, Umbrella",[21]; [27],0
same,"Plant response rating (scale of 0 to 100), Sedge, Umbrella",[21]; 62 g ai/ha,0
same,"Plant response rating (scale of 0 to 100), Sedge, Umbrella",[21]; 125 g ai/ha,0
same,"Plant response rating (scale of 0 to 100), Sedge, Umbrella",[21]; 250 g ai/ha,0
O=C(Nc1cccc(F)c1F)C1C(=S)NCC1c1ccc(Cl)cc1 (stereo not shown) [Compound 1387],"Plant response rating, Kochia",Kochia (Kochia scoparia) [1]; [28],60
same,"Plant response rating, Kochia",Kochia (Kochia scoparia) [1]; [29],30
same,"Plant response rating, Barnyardgrass",[2]; [28],90
same,"Plant response rating, Barnyardgrass",[2]; [29],50
same,"Plant response rating, Foxtail, Giant",[3]; [28],90
same,"Plant response rating, Foxtail, Giant",[3]; [29],80
same,"Plant response rating, Pigweed",[4]; [28],60
same,"Plant response rating, Pigweed",[4]; [29],0
same,"Plant response rating, Ragweed",[5]; [28],0
same,"Plant response rating, Ragweed",[5]; [29],0
same,"Plant response rating, Ryegrass, Italian",[6]; [28],0
same,"Plant response rating, Ryegrass, Italian",[6]; [29],0
same,"Plant response rating, Galium",[7]; [30],30
same,"Plant response rating, Galium",[7]; [31],50
same,"Plant response rating, Kochia",Kochia (Kochia scoparia) [8]; [30],0
same,"Plant response rating, Kochia",Kochia (Kochia scoparia) [8]; [31],50
same,"Plant response rating, Barnyardgrass",[9]; [30],60
same,"Plant response rating, Barnyardgrass",[9]; [31],80
same,"Plant response rating, Blackgrass",[10]; [30],0
same,"Plant response rating, Blackgrass",[10]; [31],40
same,"Plant response rating, Corn",corn (Zea mays); [30],0
same,"Plant response rating, Corn",corn (Zea mays); [31],10
same,"Plant response rating, Foxtail, Giant",[11]; [30],60
same,"Plant response rating, Foxtail, Giant",[11]; [31],80
same,"Plant response rating, Pigweed",[12]; [30],0
same,"Plant response rating, Pigweed",[12]; [31],60
same,"Plant response rating, Ragweed",[13]; [30],0
same,"Plant response rating, Ragweed",[13]; [31],30
same,"Plant response rating, Ryegrass, Italian",[14]; [30],0
same,"Plant response rating, Ryegrass, Italian",[14]; [31],40
same,"Plant response rating, Wheat",[15]; [30],0
same,"Plant response rating, Wheat",[15]; [31],0
same,"Plant response rating, Barnyardgrass (0 to 100 scale where 0 is no effect and 100 is complete control)",[16]; [32],0
same,"Plant response rating, Ducksalad (0 to 100 scale where 0 is no effect and 100 is complete control)",[17]; [32],0
same,"Plant response rating, Rice (0 to 100 scale where 0 is no effect and 100 is complete control)",rice (Oryra sativa); [32],0
same,"Plant response rating, Sedge, Umbrella (0 to 100 scale where 0 is no effect and 100 is complete control)",[18]; [32],0
